Experiments:
MCF7 cells = test: Cell viability assay ([…]-GLO, 6-day treatment); format: cell-based; conditions: Homo sapiens, MCF7, 144 h; MCF-7 cells, 6 days, CTG; read-out: Inhibition of Cancerous Cells IC50 MCF-7
Method: A compound provided herein was evaluated for its anticancer activity in MCF7 and T47D cells. MCF7 and T47D cells were cultured at 37° C. in a humidified 5% C02 environment in MEM or RPMI, supplemented with 10% FBS with insulin, respectively. The cells were plated in 384-well microplates at a density of 1,000 cells per well in their respective maintenance media. The cells were treated with the compound by a 10-point dose response curve for 6 days, during which, the medium and compound were refreshed once. After the 6-day treatment, the cell viability was assessed using […]-GLO (CTG) reagent. Luminescence was measured with a microplate reader.

ERα = target: T1, ERα (Homo sapiens, UniProt P03372); test: Protein degradation assay: ERα in MCF-7 cells via western blot; format: cell-based; conditions: 6 h; for ERα Protein Degradation 1 nM: 1 nM compound; for ERα Protein Degradation 10 nM: 10 nM compound; for ERα Protein Degradation 100 nM: 100 nM compound
T1 construct: degrading an ERα in MCF-7 cells via a western blot; endogenous in cells; host or cells: MCF-7
T1 sequence (P03372 1-595): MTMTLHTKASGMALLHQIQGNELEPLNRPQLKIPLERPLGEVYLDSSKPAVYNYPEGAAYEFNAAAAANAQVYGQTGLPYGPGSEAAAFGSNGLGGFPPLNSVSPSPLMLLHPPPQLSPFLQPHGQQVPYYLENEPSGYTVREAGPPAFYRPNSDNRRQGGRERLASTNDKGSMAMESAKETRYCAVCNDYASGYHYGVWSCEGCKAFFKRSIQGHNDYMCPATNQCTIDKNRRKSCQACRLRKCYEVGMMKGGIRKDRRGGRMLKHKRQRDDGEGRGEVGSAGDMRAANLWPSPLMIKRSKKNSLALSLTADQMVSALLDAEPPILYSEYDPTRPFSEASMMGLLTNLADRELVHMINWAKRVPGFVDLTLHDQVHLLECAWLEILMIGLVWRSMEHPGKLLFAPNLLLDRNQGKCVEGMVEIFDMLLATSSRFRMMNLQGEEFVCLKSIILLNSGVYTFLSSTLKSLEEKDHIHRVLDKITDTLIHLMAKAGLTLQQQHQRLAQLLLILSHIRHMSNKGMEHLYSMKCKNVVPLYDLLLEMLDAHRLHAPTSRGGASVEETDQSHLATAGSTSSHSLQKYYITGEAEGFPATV
Method: A compound provided herein was assessed for its activity in degrading an ERα in MCF-7 cells via a western blot. The MCF7 cells were cultured at 37° C. in a humidified 5% C02 environment in MEM supplemented with 10% FBS with insulin. The cells were seeded in 12-well plates at a density of 300,000 cells per well in maintenance media. Cells were treated with the compound at predetermined concentrations (e.g., 1 nM, 10 nM, 100 nM, and 1 μM) for 6 h. The cells were then washed in PBS and the whole cells were lysed in a cell lysis buffer and incubated for 15 minutes on ice. Cell debris was removed by high-speed centrifugation and the cleared whole cell lysates were prepared for further analysis by a western blot. The whole cell protein extracts were separated on SDS-polyacrylamide gels, transferred to nitrocellulose membranes, and probed with primary antibodies, including anti-ERα antibody and GAPDH antibody for loading control. The membranes were subsequently washed and probed with secondary antibodies for chemiluminescence, followed by imaging on a BIORAD CHEMIDOC Imaging System. The results are summarized in Table 2, where “A” represents a percentage degradation value of no less than 50%; “B” represents a percentage degradation value of less than 50% and no less than 25%; “C” represents a percentage degradation value of less than 25% and no less than 10%; and “D” represents a percentage degradation value of less than 10%.

Compound	IC50 (MCF7 cells)	ERα Protein Degradation 1 nM (ERα)	ERα Protein Degradation 10 nM (ERα)	ERα Protein Degradation 100 nM (ERα)
Cn1nc(C2CCC(=O)NC2=O)c2ccc(OCC(=O)N3CCN(CCCCOc4ccc(CC5(C)C(c6ccc(O)cc6)=Nc6ccc(O)cc65)cc4)CC3)cc21 (centres unmarked) [Compound D5, 3-(6-(2-(4-(4-(4-((5-Hydroxy-2-(4-hydroxyphenyl)-3-methyl-3H-indol-3-yl)-methyl)phenoxy)butyl)piperazin-1-yl)-2-oxoethoxy)-1-methyl-1H-indazol-3-yl)piperidine-2,6-dione]	136 nM	C (a percentage degradation value of less than 25% and no less than 10%)	D (a percentage degradation value of less than 10%)	C (a percentage degradation value of less than 25% and no less than 10%)
Cn1nc([C@@H]2CCC(=O)NC2=O)c2ccc(OCC(=O)N3CCN(CCCCOc4ccc([C@@H]5c6ccc(O)cc6CC[C@@H]5c5ccccc5)cc4)CC3)cc21 [Compound B23, (S)-3-(6-(2-(4-(4-(4-((1R,2S)-6-Hydroxy-2-phenyl-1,2,3,4-tetrahydronaphthalen-1-yl)phenoxy)butyl)piperazin-1-yl)-2-oxoethoxy)-1-methyl-1H-indazol-3-yl)piperidine-2,6-dione]	0.22 nM	B (a percentage degradation value of less than 50% and no less than 25%)	B (a percentage degradation value of less than 50% and no less than 25%)	D (a percentage degradation value of less than 10%)
Cn1nc(C2CCC(=O)NC2=O)c2ccc(OCC(=O)N3CCN(CCCCOc4ccc([C@H]5c6ccc(O)cc6CC[C@H]5c5ccccc5)cc4)CC3)cc21 (stereo partly drawn) [Compound B24, 3-(6-(2-(4-(4-(4-((1S,2R)-6-Hydroxy-2-phenyl-1,2,3,4-tetrahydronaphthalen-1-yl)phenoxy)butyl)piperazin-1-yl)-2-oxoethoxy)-1-methyl-1H-indazol-3-yl)piperidine-2,6-dione]	66 nM	C (a percentage degradation value of less than 25% and no less than 10%)	C (a percentage degradation value of less than 25% and no less than 10%)	C (a percentage degradation value of less than 25% and no less than 10%)
O=C1CCC(N2Cc3c(csc3COc3ccc(CNCCCCCOc4ccc([C@@H]5c6ccc(O)cc6CC[C@@H]5c5ccccc5)cc4)cc3)C2=O)C(=O)N1 (stereo partly drawn) [Compound A9, 3-(1-((4-(((5-(4-((1R,2S)-6-hydroxy-2-phenyl-1,2,3,4-tetrahydronaphthalen-1-yl)phenoxy)pentyl)amino)methyl)phenoxy)methyl)-4-oxo-4H-thieno[3,4-c]pyrrol-5(6H)-yl)piperidine-2,6-dione]	1.4 nM	B (a percentage degradation value of less than 50% and no less than 25%)	B (a percentage degradation value of less than 50% and no less than 25%)	B (a percentage degradation value of less than 50% and no less than 25%)
Cn1nc(C2CCC(=O)NC2=O)c2ccc(N3CCN(CC4CCN(c5ccc([C@@H]6c7ccc(O)cc7CC[C@@H]6c6ccccc6)cc5)CC4)CC3)cc21 (stereo partly drawn) [Compound B25, 3-(6-(4-((1-(4-((1R,2S)-6-Hydroxy-2-phenyl-1,2,3,4-tetrahydronaphthalen-1-yl)-phenyl)piperidin-4-yl)methyl)piperazin-1-yl)-1-methyl-1H-indazol-3-yl)piperidine-2,6-dione]	1.2 nM	C (a percentage degradation value of less than 25% and no less than 10%)	B (a percentage degradation value of less than 50% and no less than 25%)	D (a percentage degradation value of less than 10%)
O=C1CCN(c2ccc(OCC(=O)N3CCN(CCCCOc4ccc([C@H]5c6ccc(O)cc6CC[C@H]5c5ccccc5)cc4)CC3)cc2)C(=O)N1 [Compound B45, 1-(4-(2-(4-(4-(4-((1S,2R)-6-Hydroxy-2-phenyl-1,2,3,4-tetrahydronaphthalen-1-yl)phenoxy)butyl)piperazin-1-yl)-2-oxoethoxy)phenyl)dihydropyrimidine-2,4(1H,3H)-dione]	88 nM	C (a percentage degradation value of less than 25% and no less than 10%)	C (a percentage degradation value of less than 25% and no less than 10%)	C (a percentage degradation value of less than 25% and no less than 10%)
O=C1CCC(N2Cc3sc(C4CCN(CC5CCN(c6ccc([C@@H]7c8ccc(O)cc8CC[C@@H]7c7ccccc7)cc6)CC5)CC4)cc3C2=O)C(=O)N1 (stereo partly drawn) [Compound A10, 3-(2-(1-((1-(4-((1R,2S)-6-hydroxy-2-phenyl-1,2,3,4-tetrahydronaphthalen-1-yl)phenyl)piperidin-4-yl)methyl)piperidin-4-yl)-4-oxo-4,6-dihydro-5H-thieno[2,3-c]pyrrol-5-yl)piperidine-2,6-dione]	0.82 nM	D (a percentage degradation value of less than 10%)	D (a percentage degradation value of less than 10%)	D (a percentage degradation value of less than 10%)

More lines, main results first:

IC50 (MCF7 cells)	Compound	ERα Protein Degradation 1 nM (ERα)	ERα Protein Degradation 10 nM (ERα)	ERα Protein Degradation 100 nM (ERα)
5 nM	Cc1c(-c2ccc(O)cc2)n(Cc2ccc(OCCCCN3CCN(C(=O)COc4cccc(C5CCC(=O)NC5=O)c4)CC3)cc2)c2ccc(O)cc12 (centres unmarked) [Compound E25, 3-(3-(2-(4-(4-(4-((5-Hydroxy-2-(4-hydroxyphenyl)-3-methyl-1H-indol-1-yl)-methyl)phenoxy)butyl)piperazin-1-yl)-2-oxoethoxy)phenyl)piperidine-2,6-dione]	D (a percentage degradation value of less than 10%)	D (a percentage degradation value of less than 10%)	D (a percentage degradation value of less than 10%)
3.8 nM	Cc1c(-c2ccc(O)cc2)n(Cc2ccc(OCCCCN3CCN(C(=O)COc4cccc(N5CCC(=O)NC5=O)c4)CC3)cc2)c2ccc(O)cc12 [Compound E26, 1-(3-(2-(4-(4-(4-((5-Hydroxy-2-(4-hydroxyphenyl)-3-methyl-1H-indol-1-yl)-methyl)phenoxy)butyl)piperazin-1-yl)-2-oxoethoxy)phenyl)dihydropyrimidine-2,4(1H,3H)-dione]	D (a percentage degradation value of less than 10%)	D (a percentage degradation value of less than 10%)	D (a percentage degradation value of less than 10%)
0.22 nM	Cc1c(-c2ccc(O)cc2)n(Cc2ccc(OCCCCN3CCN(c4cc5c(s4)CN(C4CCC(=O)NC4=O)C5=O)CC3)cc2)c2ccc(O)cc12 (centres unmarked) [Compound E6, 3-(2-(4-(4-(4-((5-Hydroxy-2-(4-hydroxyphenyl)-3-methyl-1H-indol-1-yl)methyl)-phenoxy)butyl)piperazin-1-yl)-4-oxo-4,6-dihydro-5H-thieno[2,3-c]pyrrol-5-yl)piperidine-2,6-dione]	D (a percentage degradation value of less than 10%)	D (a percentage degradation value of less than 10%)	D (a percentage degradation value of less than 10%)
0.33 nM	Cc1c(-c2ccc(O)cc2)n(Cc2ccc(OCCCCN3CCN(C(=O)COc4ccc5c(C6CCC(=O)NC6=O)nn(C)c5c4)CC3)cc2)c2ccc(O)cc12 (centres unmarked) [Compound E14, 3-(6-(2-(4-(4-(4-((5-Hydroxy-2-(4-hydroxyphenyl)-3-methyl-1H-indol-1-yl)-methyl)phenoxy)butyl)piperazin-1-yl)-2-oxoethoxy)-1-methyl-1H-indazol-3-yl)piperidine-2,6-dione]	B (a percentage degradation value of less than 50% and no less than 25%)	B (a percentage degradation value of less than 50% and no less than 25%)	D (a percentage degradation value of less than 10%)

Source: US20240368121A1, “ESTROGEN RECEPTOR DEGRADERS, PHARMACEUTICAL COMPOSITIONS THEREOF, AND THEIR THERAPEUTIC APPLICATIONS” (BioTheryX, Inc., priority 2021, published 2024)
